Reference: ChEMBL document CHEMBL1156451 (J Biol Chem, 2007)
In brackets after ≈: the same amount, converted by molar mass. Activity calls are given as the source filed them. The calls are words filed in the database; no cut-off is given here. Where a SMILES comes first, the peptide text is derived from it.

Columns and labels:
[1] = test system: Bordetella bronchiseptica; assay: Antibacterial activity against Bordetella bronchiseptica CUN 11844-99 after 24 hrs in Mueller-Hinton broth medium; assay type: functional
Staphylococcus aureus = assay: Antibacterial activity against methicillin-resistant Staphylococcus aureus ATCC 43300 after 24 hrs in Mueller-Hinton broth medium; assay type: functional
Brucella abortus [2] = assay: Antibacterial activity against Brucella abortus 9.49 (per-) after 48 hrs in Mueller-Hinton broth medium; assay type: functional
Acinetobacter baumannii = assay: Antibacterial activity against Acinetobacter baumannii ATCC 19606 after 24 hrs in Mueller-Hinton broth medium; assay type: functional
Escherichia coli [3] = assay: Antibacterial activity against Escherichia coli K12 ATCC 23716 in 10% Luria-Bertani medium/90% Hepes buffer at pH 7.0; assay type: functional
Pseudomonas aeruginosa = assay: Antibacterial activity against Pseudomonas aeruginosa CUN 4158-02 after 24 hrs in Mueller-Hinton broth medium; assay type: functional
Escherichia coli [4] = assay: Antibacterial activity against Escherichia coli K12 ATCC 23716 after 24 hrs in Mueller-Hinton broth medium; assay type: functional
Brucella abortus [5] = assay: Antibacterial activity against Brucella abortus 9.19 (per-) after 24 hrs in Mueller-Hinton broth medium; assay type: functional
HeLa = assay: Cytotoxicity against human HeLa cells at 100 ug/ml after 24 hrs by MTT assay relative to control; assay type: functional
Escherichia coli [6] = assay: Antibacterial activity against Escherichia coli ATCC 25922 after 24 hrs in Mueller-Hinton broth medium; assay type: functional
[7] = Toxicity in human erythrocytes assessed as hemolysis at 100 ug/ml; assay type: cell-based, Erythrocyte; settings: read-out: Activity

| Molecule | MBC [1] [µg/mL] | MIC [1] [µg/mL] | MBC (Staphylococcus aureus; ATCC 43300, 24 h) [µg/mL] | MIC (Staphylococcus aureus; ATCC 43300, 24 h) [µg/mL] | MIC (Brucella abortus [2]) [µg/mL] | MBC (Acinetobacter baumannii; ATCC 19606, 24 h) [µg/mL] | MIC (Acinetobacter baumannii; ATCC 19606, 24 h) [µg/mL] | MBC (Escherichia coli [3]) [µg/mL] | MIC (Escherichia coli [3]) [µg/mL] | MBC (Pseudomonas aeruginosa) [µg/mL] | MIC (Pseudomonas aeruginosa) [µg/mL] | MBC (Escherichia coli [4]; K12, 24 h) [µg/mL] | MIC (Escherichia coli [4]; K12, 24 h) [µg/mL] | MBC (Brucella abortus [5]) [µg/mL] | Activity (HeLa) | MBC (Escherichia coli [6]; ATCC 25922, 24 h) [µg/mL] | MIC (Escherichia coli [6]; ATCC 25922, 24 h) [µg/mL] | hemolysis at 100 ug/ml [7] [%] | other results |
| --- | --- | --- | --- | --- | --- | --- | --- | --- | --- | --- | --- | --- | --- | --- | --- | --- | --- | --- | --- |
| CC[C@H](C)[C@H](NC(=O)[C@H](CCCCN)NC(=O)[C@H](CCCCN)NC(=O)[C@H](CO)NC(=O)[C@@H](NC(=O)CNC(=O)[C@H](CCCNC(=N)N)NC(=O)[C@H](CC(C)C)NC(=O)[C@@H](NC(=O)[C@@H](N)CCCCN)[C@@H](C)CC)C(C)C)C(=O)N[C@@H](CCSC)C(=O)N[C@@H](CCCNC(=N)N)C(=O)N[C@H](C(=O)N[C@@H](Cc1ccccc1)C(=O)N[C@@H](CC(C)C)C(=O)N[C@@H](CCCNC(=N)N)C(=O)N[C@@H](CCCNC(=N)N)C(N)=O)[C@@H](C)O (H-KILRGVSKKIMRTFLRR-NH2) | 8 (≈ 3.81 µM) | 8 (≈ 3.81 µM) | 128 (≈ 60.9 µM) | 128 (≈ 60.9 µM) | 16 (≈ 7.61 µM) | 16 (≈ 7.61 µM) | 8 (≈ 3.81 µM) | 8 (≈ 3.81 µM) | 4 (≈ 1.9 µM) | 128 (≈ 60.9 µM) | 128 (≈ 60.9 µM) | 16 (≈ 7.61 µM) | 8 (≈ 3.81 µM) | 64 (≈ 30.5 µM) | inactive | 32 (≈ 15.2 µM) | 32 (≈ 15.2 µM) | < 5 | – |
| CC[C@H](C)[C@H](NC(=O)[C@H](CCCCN)NC(=O)[C@H](CCCCN)NC(=O)[C@H](CO)NC(=O)[C@@H](NC(=O)CNC(=O)[C@H](CCCNC(=N)N)NC(=O)[C@H](CC(C)C)NC(=O)[C@@H](NC(=O)[C@@H](N)CCCCN)[C@@H](C)CC)C(C)C)C(=O)N[C@@H](CCSC)C(=O)N[C@@H](CCCNC(=N)N)C(=O)N[C@@H](CCCNC(=N)N)C(=O)N[C@H](C(=O)N[C@@H](CC(C)C)C(=O)N[C@H](C(=O)NCC(=O)N[C@@H](CCCCN)C(=O)N[C@@H](CCCCN)C(N)=O)[C@@H](C)O)[C@@H](C)CC (H-KILRGVSKKIMRRILTGKK-NH2) | 4 (≈ 1.8 µM) | 4 (≈ 1.8 µM) | > 256 | > 256 | 64 (≈ 28.8 µM) | 2 (≈ 0.899 µM) | 2 (≈ 0.899 µM) | 32 (≈ 14.4 µM) | 16 (≈ 7.19 µM) | 32 (≈ 14.4 µM) | 32 (≈ 14.4 µM) | 64 (≈ 28.8 µM) | 64 (≈ 28.8 µM) | 128 (≈ 57.5 µM) | inactive | 32 (≈ 14.4 µM) | 32 (≈ 14.4 µM) | < 5 | – |
| POLYMYXIN B | 0.5 | 0.5 | – | – | 0.25 | – | – | 3.2 | 2.4 | 0.25 | 0.25 | – | – | 0.5 | inactive | – | – | – | MIC (Staphylococcus aureus): 32 µg/mL; MBC (Acinetobacter baumannii): 0.5 µg/mL; MIC (Acinetobacter baumannii): 0.5 µg/mL; MBC (Escherichia coli [4]): 0.125 µg/mL; MIC (Escherichia coli [4]): 0.125 µg/mL; MBC (Escherichia coli [6]): 0.5 µg/mL; MIC (Escherichia coli [6]): 0.5 µg/mL |
| CC[C@H](C)[C@H](NC(=O)[C@H](CCCNC(=N)N)NC(=O)[C@H](CCCCN)NC(=O)[C@H](CO)NC(=O)[C@@H](NC(=O)[C@@H](N)CCCCN)[C@@H](C)CC)C(=O)N[C@@H](CC(C)C)C(=O)N[C@H](C(=O)NCC(=O)N[C@@H](CCCCN)C(=O)N[C@@H](CCCCN)C(=O)O)[C@@H](C)O (H-KISKRILTGKK-OH) | > 256 | > 256 | > 256 | > 256 | > 256 | > 256 | > 256 | > 200 | 200 (≈ 157 µM) | > 256 | > 256 | > 256 | > 256 | > 256 | inactive | > 256 | > 256 | < 5 | – |
| CC[C@H](C)[C@H](NC(=O)[C@H](CCCCN)NC(=O)[C@H](CCCCN)NC(=O)[C@H](CO)NC(=O)[C@@H](NC(=O)CNC(=O)[C@H](CC(C)C)NC(=O)[C@@H](NC(=O)[C@@H](N)CCCCN)[C@@H](C)CC)C(C)C)C(=O)N[C@@H](CCSC)C(=O)N[C@@H](CCCNC(=N)N)C(=O)N[C@@H](CCCNC(=N)N)C(=O)N[C@H](C(=O)N[C@@H](CO)C(=O)N[C@@H](CCCCN)C(=O)N[C@@H](CC(=O)O)C(=O)N[C@H](C(=O)N[C@@H](CC(C)C)C(=O)N[C@H](C(=O)NCC(=O)N[C@@H](CCCCN)C(=O)N[C@@H](CCCCN)C(N)=O)[C@@H](C)O)[C@@H](C)CC)[C@@H](C)CC (H-KILGVSKKIMRRISKDILTGKK-NH2) | 2 (≈ 0.796 µM) | 2 (≈ 0.796 µM) | > 256 | > 256 | 16 (≈ 6.37 µM) | 16 (≈ 6.37 µM) | 16 (≈ 6.37 µM) | 12.5 (≈ 4.98 µM) | 6.25 (≈ 2.49 µM) | 64 (≈ 25.5 µM) | 32 (≈ 12.7 µM) | 16 (≈ 6.37 µM) | 16 (≈ 6.37 µM) | > 256 | inactive | 32 (≈ 12.7 µM) | 32 (≈ 12.7 µM) | < 5 | – |
| CC[C@H](C)[C@H](NC(=O)[C@H](CCCNC(=N)N)NC(=O)[C@H](CCCNC(=N)N)NC(=O)[C@H](CC(C)C)NC(=O)[C@H](Cc1ccccc1)NC(=O)[C@@H](NC(=O)[C@H](CCCNC(=N)N)NC(=O)[C@H](CCSC)NC(=O)[C@@H](NC(=O)[C@H](CCCCN)NC(=O)[C@@H](N)CCCCN)[C@@H](C)CC)[C@@H](C)O)C(=O)N[C@@H](CO)C(=O)N[C@@H](CCCCN)C(=O)N[C@@H](CC(=O)O)C(=O)N[C@H](C(=O)N[C@@H](CC(C)C)C(=O)N[C@H](C(=O)NCC(=O)N[C@@H](CCCCN)C(=O)N[C@@H](CCCCN)C(N)=O)[C@@H](C)O)[C@@H](C)CC (H-KKIMRTFLRRISKDILTGKK-NH2) | 8 (≈ 3.29 µM) | 4 (≈ 1.64 µM) | > 256 | > 256 | 16 (≈ 6.58 µM) | 64 (≈ 26.3 µM) | 8 (≈ 3.29 µM) | 32 (≈ 13.2 µM) | 32 (≈ 13.2 µM) | 128 (≈ 52.6 µM) | 128 (≈ 52.6 µM) | 32 (≈ 13.2 µM) | 32 (≈ 13.2 µM) | > 256 | inactive | 64 (≈ 26.3 µM) | 16 (≈ 6.58 µM) | < 5 | – |
| CC[C@H](C)[C@H](NC(=O)[C@H](CCCNC(=N)N)NC(=O)[C@H](CCCCN)NC(=O)[C@H](CO)NC(=O)[C@@H](NC(=O)CNC(=O)[C@H](CC(C)C)NC(=O)[C@@H](NC(=O)[C@@H](N)CCCCN)[C@@H](C)CC)C(C)C)C(=O)N[C@@H](CC(C)C)C(=O)N[C@H](C(=O)NCC(=O)N[C@@H](CCCCN)C(=O)N[C@@H](CCCCN)C(N)=O)[C@@H](C)O (H-KILGVSKRILTGKK-NH2) | > 256 | 256 (≈ 166 µM) | > 256 | > 256 | > 128 | > 256 | > 256 | > 100 | 50 (≈ 32.5 µM) | > 256 | > 256 | > 256 | 256 (≈ 166 µM) | > 12.8 | inactive | > 256 | > 256 | < 5 | – |
| CC[C@H](C)[C@H](NC(=O)[C@H](CCCNC(=N)N)NC(=O)[C@H](CCCNC(=N)N)NC(=O)[C@H](CC(C)C)NC(=O)[C@H](Cc1ccccc1)NC(=O)[C@@H](NC(=O)[C@H](CCCNC(=N)N)NC(=O)[C@H](CCSC)NC(=O)[C@@H](NC(=O)[C@H](CCCCN)NC(=O)[C@@H](N)CCCCN)[C@@H](C)CC)[C@@H](C)O)C(=O)N[C@@H](CO)C(=O)N[C@@H](CCCCN)C(=O)N[C@@H](CCCCN)C(=O)N[C@H](C(=O)N[C@@H](CC(C)C)C(=O)N[C@H](C(=O)NCC(=O)N[C@@H](CCCCN)C(=O)N[C@@H](CCCCN)C(N)=O)[C@@H](C)O)[C@@H](C)CC (H-KKIMRTFLRRISKKILTGKK-NH2) | 16 (≈ 6.54 µM) | 2 (≈ 0.818 µM) | 256 (≈ 105 µM) | 128 (≈ 52.3 µM) | 4 (≈ 1.64 µM) | 8 (≈ 3.27 µM) | 8 (≈ 3.27 µM) | 32 (≈ 13.1 µM) | 16 (≈ 6.54 µM) | 128 (≈ 52.3 µM) | 32 (≈ 13.1 µM) | 32 (≈ 13.1 µM) | 16 (≈ 6.54 µM) | 32 (≈ 13.1 µM) | inactive | 64 (≈ 26.2 µM) | 32 (≈ 13.1 µM) | < 5 | – |
| CC[C@H](C)[C@H](N)C(=O)N[C@@H](CO)C(=O)N[C@@H](CCCCN)C(=O)N[C@@H](CCCNC(=N)N)C(=O)N[C@H](C(=O)N[C@@H](CC(C)C)C(=O)N[C@H](C(=O)NCC(=O)N[C@@H](CCCCN)C(=O)N[C@@H](CCCCN)C(=O)O)[C@@H](C)O)[C@@H](C)CC (H-ISKRILTGKK-OH) | > 256 | > 256 | > 256 | > 256 | > 64 | > 256 | > 256 | > 200 | > 200 | > 256 | > 256 | > 256 | > 256 | > 256 | inactive | > 256 | > 256 | < 5 | – |
| CC[C@H](C)[C@H](NC(=O)[C@H](CCCNC(=N)N)NC(=O)[C@H](CCCCN)NC(=O)[C@H](CO)NC(=O)[C@@H](NC(=O)CNC(=O)[C@H](CCCNC(=N)N)NC(=O)[C@H](CC(C)C)NC(=O)[C@@H](NC(=O)[C@@H](N)CCCCN)[C@@H](C)CC)C(C)C)C(=O)N[C@@H](CC(C)C)C(=O)N[C@H](C(=O)NCC(=O)N[C@@H](CCCCN)C(=O)N[C@@H](CCCCN)C(N)=O)[C@@H](C)O (H-KILRGVSKRILTGKK-NH2) | > 64 | > 64 | > 256 | > 256 | – | > 128 | > 128 | 100 (≈ 59 µM) | 50 (≈ 29.5 µM) | 128 (≈ 75.5 µM) | 128 (≈ 75.5 µM) | > 128 | > 128 | – | inactive | > 256 | > 256 | < 5 | – |
